The source of these data is PMC10057445, “Interactions of N-Mannich Bases of Pyrrolo[3,4-c]pyrrole with Artificial Models of Cell Membranes and Plasma Proteins, Evaluation of Anti-Inflammatory and Antioxidant Activity” (Membranes, 2023).

The target of this test is T1, human serum albumin (HSA) (Homo sapiens, UniProt P02768).
T1 construct: gene ALB; commercial powder (Sigma Aldrich), mature plasma protein
Description: intrinsic fluorescence quenching, ex […] nm. Format: binding. Particulars: double-log; 297 K, pH 7.4 phosphate, no site marker.

T1 sequence (P02768 25-609): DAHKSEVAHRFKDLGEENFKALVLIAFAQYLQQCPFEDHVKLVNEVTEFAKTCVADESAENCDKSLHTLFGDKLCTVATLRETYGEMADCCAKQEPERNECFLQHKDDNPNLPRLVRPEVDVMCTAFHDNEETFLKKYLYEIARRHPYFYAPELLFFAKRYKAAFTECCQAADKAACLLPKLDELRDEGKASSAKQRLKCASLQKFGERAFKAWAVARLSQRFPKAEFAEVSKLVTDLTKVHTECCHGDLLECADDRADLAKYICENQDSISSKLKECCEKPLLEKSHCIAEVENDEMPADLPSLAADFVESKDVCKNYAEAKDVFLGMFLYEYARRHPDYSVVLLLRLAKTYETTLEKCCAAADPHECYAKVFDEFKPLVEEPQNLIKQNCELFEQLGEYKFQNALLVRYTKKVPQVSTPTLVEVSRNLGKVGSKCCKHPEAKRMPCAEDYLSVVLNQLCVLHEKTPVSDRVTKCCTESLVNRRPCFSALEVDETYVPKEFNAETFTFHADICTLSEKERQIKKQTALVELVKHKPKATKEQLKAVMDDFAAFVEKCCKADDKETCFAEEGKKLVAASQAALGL

On to `Cc1c2c(c(C)n1-c1ccccc1)C(=O)N(CN1CCN(c3ccccc3)CC1)C2=O` [7a], for which the “Binding / Kb × 10^3 [dm^3.mol^-1]” value was 9.12 × 10^3 dm^3·mol^-1.
With `Cc1c2c(c(C)n1-c1ccccc1)C(=O)N(CN1CCN(S(C)(=O)=O)CC1)C2=O` [7l] the figure was 1.66 × 10^3 dm^3·mol^-1.
